Like-named read-outs stand apart in the source and are kept apart here.
Key:
Aβ 42 = test: % 42 lowering and 40/42 selectivity after dosing in mg/kg (Table 5); format: in vivo
Aβ-38 = Aβ-38 MSD 3-plex ELISA, conditioned media of 2B7 cells; format: cell-based; settings: Homo sapiens, 5 hours treatment
Protocol: (§1) Assays were conducted to determine the ability of a Compound of Formula I to modulate […], and Aβ-38.
(§2) Plates with capture antibodies were blocked for 1-2 hours at room temperature with 150 μL of the manufactures blocking reagent.
(§3) Cultured 2B7 cells in 96 well plate with 250 μL of media per well until confluent;
(§4) Prepared serial dilutions of compounds in DMSO at 100× the final desired concentration;
(§5) Washed wells with 2B7 cells 1× with 250 μL of media;
(§6) Diluted DMSO stocks 1:100 into media: • Added 250 μL of media containing compounds (1% DMSO) to wells with 2B7 cells for 5 hours at 37° C.
(§7) ELISA Sample Prep: • Diluted conditioned media: 1 part media with 1% DMSO and 1 part blocking buffer; • 150 μL of the 250 μL of conditioned media were used.
(§8) Prepared per manufacturer's protocol (see above). • Seven point standard curve samples were prepared that contained Aβ-42, Aβ-40, and Aβ-38. The highest concentration of Aβ-42 and Aβ-38 was 3,000 pg/mL and the highest concentration of Aβ-40 was 10,000 pg/mL. Subsequent serial dilutions were 1:3 and the final composition of each sample was 1 part blocking buffer and 1 part cell medium containing 1% DMSO.
(§9) Overnight Sample Incubation: • Blocked plates are washed 5× with MSD wash buffer with a plate washer; • […] and blocker G reagent in MSD blocking solution was added; • 25 μL of samples (1 part conditioned media containing 1% DMSO and 1 part MSD blocking buffer) were then added; • Plates were incubated overnight at 4 degrees C. or 2 hours at room temperature.
(§10) Final Wash and Readout: • Washed wells 5× with MSD wash buffer; • Added 150 μL 2×MSD read buffer; • Read with MSD imager.
(§11) Aβ peptide levels for each peptide were calculated from the standard curve using the MSD software provided with the MSD 2400 Imager. Percent vehicle values for each compound dosage were then calculated and fit to a 4 parameter curve generating IC50 values.
(§12) Conditioned media from 2B7 cells (Mayo) was collected after 5 hours of treatment and diluted with 1 volume of Meso Scale Discovery (MSD, Gaithersburg Md.) blocking buffer (1% BSA in MSD wash buffer). For total Aβ measurements, standard-bind, multi-array single spot 96 well MSD ELISA plates were coated with unlabeled 4G8 capture antibody (Covance, Princeton, N.J.) overnight at 4° C. and then blocked with 5% BSA in MSD wash buffer for 1 hour at room temperature with orbital shaking Diluted 2B7 conditioned media were added to the blocked in-house total Aβ MSD plates with SULFO-TAG 6E10 antibody (MSD). For Aβ38, 40 and 42 measurements, diluted 2B7 conditioned media were added to blocked human (6E10) Aβ 3-Plex plates (MSD). Total Aβ and Aβ 3-Plex plates were incubated for 2 hours at room temperature with orbital shaking followed by washing and reading according to the manufacturer's instructions (SECTOR® Imager 2400, MSD). Aβ concentrations were converted to percent vehicle values and used to construct dose response curves which were fitted to […] using GraphPad Prism version 5.00 for Windows, GraphPad Software, San Diego Calif. USA.

Aβ-42 = Aβ-42 MSD 3-plex ELISA, conditioned media of 2B7 cells; format: cell-based; settings: Homo sapiens, 5 hours treatment
Protocol: as §1, §2, §3, §4, §5, §6, §7, §8, §9, §10, §11, §12

Aβ-40 = Aβ-40 MSD 3-plex ELISA, conditioned media of 2B7 cells; format: cell-based; settings: Homo sapiens, 5 hours treatment
Protocol: as §1, §2, §3, §4, §5, §6, §7, §8, §9, §10, §11, §12

[1] = inflection of dose response curve, read-out: Aβ 42 DR IC50 Inflection
[2] = inflection of dose response curve, read-out: Aβ 40 DR IC50 Inflection

SMILES	IC50 (Aβ-38; read-out: Aβ 38 IC50)	IC50 (Aβ-42; [1])	IC50 (Aβ-42; read-out: Aβ 42 IC50)	IC50 (Aβ-40; read-out: Aβ 40 IC50)	also measured
CCO[C@@H]([C@H]1C[C@@H](C)[C@H]2[C@H](O1)[C@H](O)[C@@]1(C)[C@@H]3CC[C@H]4C(C)(C)[C@@H](O[C@H]5CN(C6CCN(CCOC)CC6)CCO5)CC[C@@]45C[C@@]35CC[C@]21C)C(C)(C)O [Compound I-28]	501 to 1000 nM	100 to 500 nM	100 to 500 nM		40/42 selective 10 hr (Aβ 42; 100 mg/kg): F^a (10-15 fold selectivity); %42 lowering 10 hr (Aβ 42; 100 mg/kg): A^a (% 42 lowering of under 15%)
CCO[C@@H]([C@H]1C[C@@H](C)[C@H]2[C@H](O1)[C@H](O)[C@@]1(C)[C@@H]3CC[C@H]4C(C)(C)[C@@H](O[C@H]5CN(C6CN(C7CCC7)C6)CCO5)CC[C@@]45C[C@@]35CC[C@]21C)C(C)(C)O [Compound I-13]					%42 lowering 10 hr (Aβ 42; 150 mg/kg): D (% 42 lowering of 26-30%); %42 lowering 24 hr (Aβ 42; 150 mg/kg): D (% 42 lowering of 26-30%)
CCO[C@@H]([C@H]1C[C@@H](C)[C@H]2[C@H](O1)[C@H](O)[C@@]1(C)[C@@H]3CC[C@H]4C(C)(C)[C@@H](O[C@H]5CN(CC6CN(CC(C)(C)O)C6)CCO5)CC[C@@]45C[C@@]35CC[C@]21C)C(C)(C)O [Compound I-24]					%42 lowering 10 hr (Aβ 42; 100 mg/kg): A^a (% 42 lowering of under 15%); %42 lowering 24 hr (Aβ 42; 100 mg/kg): C^a (% 42 lowering of 21-25%)
CCO[C@@H]([C@H]1C[C@@H](C)[C@H]2[C@H](O1)[C@H](O)[C@@]1(C)[C@@H]3CC[C@H]4C(C)(C)[C@@H](O[C@H]5CN(C6CCN(C(C)C)CC6)CCO5)CC[C@@]45C[C@@]35CC[C@]21C)C(C)(C)O [Compound I-30]	100 to 500 nM	< 100 nM	< 100 nM	1000 to 5000 nM	40/42 selective 10 hr (Aβ 42; 100 mg/kg): G^a (16-20 fold selectivity); %42 lowering 10 hr (Aβ 42; 100 mg/kg): A^a (% 42 lowering of under 15%)
CCO[C@@H]([C@H]1C[C@@H](C)[C@H]2[C@H](O1)[C@H](O)[C@@]1(C)[C@@H]3CC[C@H]4C(C)(C)[C@@H](O[C@H]5CN(C6CCN(C)CC6)CCO5)CC[C@@]45C[C@@]35CC[C@]21C)C(C)(C)O [Compound I-29]	100 to 500 nM	< 100 nM	< 100 nM	1000 to 5000 nM	
CCO[C@@H]([C@H]1C[C@@H](C)[C@H]2[C@H](O1)[C@H](O)[C@@]1(C)[C@@H]3CC[C@H]4C(C)(C)[C@@H](O[C@H]5CN(CC6CN(C)C6)CCO5)CC[C@@]45C[C@@]35CC[C@]21C)C(C)(C)O [Compound I-5]					%42 lowering 10 hr (Aβ 42; 150 mg/kg): A (% 42 lowering of under 15%)
CCO[C@@H]([C@H]1C[C@@H](C)[C@H]2[C@H](O1)[C@H](O)[C@@]1(C)[C@@H]3CC[C@H]4C(C)(C)[C@@H](O[C@H]5CN(CCN(C)C)CCO5)CC[C@@]45C[C@@]35CC[C@]21C)C(C)(C)O [Compound I-59]	501 to 1000 nM	100 to 500 nM	100 to 500 nM	1000 to 5000 nM	
CCO[C@@H]([C@H]1C[C@@H](C)[C@H]2[C@H](O1)[C@H](O)[C@@]1(C)[C@@H]3CC[C@H]4C(C)(C)[C@@H](O[C@H]5CN(C6CCN(C7CCC7)CC6)CCO5)CC[C@@]45C[C@@]35CC[C@]21C)C(C)(C)O [Compound I-21]	501 to 1000 nM	100 to 500 nM	100 to 500 nM	1000 to 5000 nM	IC50 (Aβ-38; inflection of dose response curve, read-out: Aβ 38 DR IC50 Inflection): 501 to 1000 nM; IC50 (Aβ-40; [2]): 1000 to 5000 nM
CCO[C@@H]([C@H]1C[C@@H](C)[C@H]2[C@H](O1)[C@H](O)[C@@]1(C)[C@@H]3CC[C@H]4C(C)(C)[C@@H](O[C@H]5CN(CC6(O)CN(C7COC7)C6)CCO5)CC[C@@]45C[C@@]35CC[C@]21C)C(C)(C)O [Compound I-45]	100 to 500 nM	100 to 500 nM	100 to 500 nM	1000 to 5000 nM	
CCO[C@@H]([C@H]1C[C@@H](C)[C@H]2[C@H](O1)[C@H](O)[C@@]1(C)[C@@H]3CC[C@H]4C(C)(C)[C@@H](O[C@H]5CN(C6(C)CN(CCOC)C6)CCO5)CC[C@@]45C[C@@]35CC[C@]21C)C(C)(C)O [Compound I-37]	100 to 500 nM	< 100 nM	100 to 500 nM	1000 to 5000 nM	
CCO[C@@H]([C@H]1C[C@@H](C)[C@H]2[C@H](O1)[C@H](O)[C@@]1(C)[C@@H]3CC[C@H]4C(C)(C)[C@@H](O[C@H]5CN(C(C)(C)C6CN(C7COC7)C6)CCO5)CC[C@@]45C[C@@]35CC[C@]21C)C(C)(C)O [Compound I-15]	501 to 1000 nM	100 to 500 nM	100 to 500 nM	1000 to 5000 nM	IC50 (Aβ-40; [2]): > 5000 nM
CCO[C@@H]([C@H]1C[C@@H](C)[C@H]2[C@H](O1)[C@H](O)[C@@]1(C)[C@@H]3CC[C@H]4C(C)(C)[C@@H](O[C@H]5CN(C6CN(CCF)C6)CCO5)CC[C@@]45C[C@@]35CC[C@]21C)C(C)(C)O [Compound I-4]	501 to 1000 nM	100 to 500 nM	100 to 500 nM	1000 to 5000 nM	IC50 (Aβ-40; [2]): > 5000 nM
CCO[C@@H]([C@H]1C[C@@H](C)[C@H]2[C@H](O1)[C@H](O)[C@@]1(C)[C@@H]3CC[C@H]4C(C)(C)[C@@H](O[C@H]5CN(CC6(O)CN(CCO)C6)CCO5)CC[C@@]45C[C@@]35CC[C@]21C)C(C)(C)O [Compound I-69]	100 to 500 nM	< 100 nM	< 100 nM	501 to 1000 nM	
CCO[C@@H]([C@H]1C[C@@H](C)[C@H]2[C@H](O1)[C@H](O)[C@@]1(C)[C@@H]3CC[C@H]4C(C)(C)[C@@H](O[C@H]5CN(C6CN(C(C)C)C6)CCO5)CC[C@@]45C[C@@]35CC[C@]21C)C(C)(C)O [Compound I-6]					%42 lowering 10 hr (Aβ 42; 150 mg/kg): C (% 42 lowering of 21-25%); %42 lowering 24 hr (Aβ 42; 100 mg/kg): E^a (% 42 lowering of greater than 31%)
CCO[C@@H]([C@H]1C[C@@H](C)[C@H]2[C@H](O1)[C@H](O)[C@@]1(C)[C@@H]3CC[C@H]4C(C)(C)[C@@H](O[C@H]5CN(C6(C)CN(CC7(C)COC7)C6)CCO5)CC[C@@]45C[C@@]35CC[C@]21C)C(C)(C)O [Compound I-34]	501 to 1000 nM	100 to 500 nM	100 to 500 nM	1000 to 5000 nM	
CCO[C@@H]([C@H]1C[C@@H](C)[C@H]2[C@H](O1)[C@H](O)[C@@]1(C)[C@@H]3CC[C@H]4C(C)(C)[C@@H](O[C@H]5CN(CC6CN(CCOC)C6)CCO5)CC[C@@]45C[C@@]35CC[C@]21C)C(C)(C)O [Compound I-20]					%42 lowering 10 hr (Aβ 42; 100 mg/kg): A^a (% 42 lowering of under 15%)
CCO[C@@H]([C@H]1C[C@@H](C)[C@H]2[C@H](O1)[C@H](O)[C@@]1(C)[C@@H]3CC[C@H]4C(C)(C)[C@@H](O[C@H]5CN(CC6(O)CN(CCOC)C6)CCO5)CC[C@@]45C[C@@]35CC[C@]21C)C(C)(C)O [Compound I-46]	100 to 500 nM	< 100 nM	< 100 nM	501 to 1000 nM	
CCO[C@@H]([C@H]1C[C@@H](C)[C@H]2[C@H](O1)[C@H](O)[C@@]1(C)[C@@H]3CC[C@H]4C(C)(C)[C@@H](O[C@H]5CN(CC6(O)CN(CC(C)(C)O)C6)CCO5)CC[C@@]45C[C@@]35CC[C@]21C)C(C)(C)O [Compound I-47]	100 to 500 nM	100 to 500 nM	100 to 500 nM	1000 to 5000 nM	

Source: patent publication US20130060020A1, “Compounds useful for treating neurodegenerative disorders” (Satori Pharmaceuticals, Inc., priority 2011, published 2013)
